# Measured values reported in BindingDB's records for doi:10.1016/j.bmc.2019.115216 (National and Kapodistrian University of Athens, 2020).
# Molecular target: Autotaxin (ENPP2) (Mus musculus) (UniProt Q9R1E6)
# Assay: Inhibition of recombinant mouse N-terminal polyHis-tagged ATX-beta (Ser49 to Ile862 residues) expressed in HEK293 cells assessed as reduction in cleavage of LPC into LPA and choline using LPC(16:0) as substrate by Amplex red reagent based fluorescence assay
row,IC50 [µM],Compound
1,> 5,COC(=O)c1ccc(COc2ccc(CN3C(=O)CC[C@H]3Cn3ccnc3)cc2)cc1
2,4.5,O=C(O)c1ccc(COc2ccc(CNC(=O)[C@@H]3CCC(=O)N3Cc3ccccc3)cc2)cc1
3,0.18,CC1(C)OB(c2ccc(COc3ccc(CNC(=O)[C@H]4CCC(=O)N4Cc4ccccc4)cc3)cc2)OC1(C)C
4,> 5,O=C(O)c1ccc(COc2ccc(CNC(=O)[C@@H]3CCC(=O)N3Cc3ccc(C(F)(F)F)cc3)cc2)cc1
5,> 5,O=C(NCc1ccc(OCc2ccc(-c3nn[nH]n3)cc2)cc1)[C@@H]1CCC(=O)N1Cc1ccccc1
6,> 5,O=C(NCc1ccc(OCc2ccccc2)cc1)[C@@H]1CCC(=O)N1Cc1ccccc1
7,> 5,NS(=O)(=O)c1ccc(C(=O)NC[C@@H]2CCC(=O)N2Cc2ccccc2)cc1
8,> 5,NS(=O)(=O)c1ccc(COc2ccc(CNC(=O)[C@@H]3CCC(=O)N3Cc3ccc(F)cc3)cc2)cc1
9,> 5,NS(=O)(=O)c1ccc(COc2ccc(CNC(=O)[C@@H]3CCC(=O)N3Cc3ccc(C(F)(F)F)cc3)cc2)cc1
10,0.05,CC1(C)OB(c2ccc(COc3ccc(CNC(=O)[C@@H]4CCC(=O)N4Cc4ccccc4)cc3)cc2)OC1(C)C
11,> 5,O=C(O)c1ccc(COc2ccc(CN3CCC[C@H]3C(=O)NCc3ccccc3)cc2)cc1
12,> 5,O=C(NCc1ccccc1)[C@@H]1CCC(=O)N1Cc1ccc(OCc2ccc(-c3nn[nH]n3)cc2)cc1
13,> 5,O=C(NCc1ccc(OCc2cn(-c3ccccc3)nn2)cc1)[C@@H]1CCC(=O)N1Cc1ccccc1
14,> 5,O=C1CC[C@@H](C(=O)NCc2ccc(OCc3ccc(C(=O)O)cc3)cc2)N1
15,0.12,CC1(C)OB(c2ccc(COc3ccc(CNC(=O)[C@@H]4CCC(=O)N4Cc4ccc(F)cc4)cc3)cc2)OC1(C)C
16,> 5,O=C(O)c1ccc(COc2ccc(CNC(=O)[C@@H]3CCC(=O)N3Cc3ccc(F)cc3)cc2)cc1
17,0.7,O=C(NO)c1ccc(COc2ccc(CNC(=O)[C@@H]3CCC(=O)N3Cc3ccccc3)cc2)cc1
18,> 5,O=C(NCc1ccccc1)[C@@H]1CCC(=O)N1Cc1ccccc1

row,IC50 [µM],Compound
1,> 5,O=C(O)c1ccc(COc2ccc(CNC(=O)[C@H]3CCC(=O)N3Cc3ccccc3)cc2)cc1
2,> 5,O=C(NCCc1c[nH]cn1)c1ccc(COc2ccc(CNC(=O)[C@@H]3CCC(=O)N3Cc3ccc(F)cc3)cc2)cc1
3,> 5,O=C(NCc1ccc(OCc2ccncc2)cc1)[C@@H]1CCC(=O)N1Cc1ccccc1
4,> 5,O=C(NCc1ccccc1)[C@@H]1CCCN1Cc1ccc(OCc2ccc(-c3nn[nH]n3)cc2)cc1
5,0.035,O=C(NCc1ccc(OCc2ccc(B(O)O)cc2)cc1)[C@@H]1CCC(=O)N1Cc1ccccc1
6,> 5,O=C(O)c1ccc(COc2ccc(CNC(=O)[C@H]3CCCN3Cc3ccc(F)cc3)cc2)cc1
7,> 5,O=C(NCc1ccc(OCc2ccc(-c3nn[nH]n3)cc2)cc1)[C@@H]1CCC(=O)N1Cc1ccc(F)cc1
8,> 5,O=C(NCCc1c[nH]cn1)c1ccc(COc2ccc(CNC(=O)[C@@H]3CCC(=O)N3Cc3ccccc3)cc2)cc1
9,> 5,O=C(O)c1ccc(COc2ccc(CNC(=O)[C@@H]3CCC(=O)N3Cc3ccc(Br)cc3)cc2)cc1
10,> 5,O=C(NCc1ccc(OCc2ccc(-c3nn[nH]n3)cc2)cc1)[C@@H]1CCCN1Cc1ccccc1
11,> 5,NS(=O)(=O)c1ccc(COc2ccc(CNC(=O)[C@@H]3CCC(=O)N3Cc3ccccc3)cc2)cc1
12,> 5,O=C(O)c1ccc(COc2ccc(CNC(=O)[C@@H]3CCCN3Cc3ccccc3)cc2)cc1
13,> 5,O=C(O)c1ccc(COc2ccc(CN3C(=O)CC[C@H]3Cn3ccnc3)cc2)cc1
14,> 5,O=C(O)c1ccc(COc2ccc(CN3C(=O)CC[C@H]3C(=O)NCc3ccccc3)cc2)cc1
15,> 5,O=C(NCc1ccc(O)cc1)[C@@H]1CCC(=O)N1Cc1ccccc1
16,0.8,O=C(O)c1ccc(COc2ccc(CNC(=O)[C@@H]3CCCN3Cc3ccc(F)cc3)cc2)cc1
17,> 5,COC(=O)c1ccc(COc2ccc(CNC(=O)[C@@H]3CCC(=O)N3Cc3ccccc3)cc2)cc1
